Reference: patent publication US20210230131A1, “POLYAMINO BIARYL COMPOUNDS AND THEIR USE” (INSERM (INSTITUT NATIONAL DE LA SANTÉ ET DE LA RECHERCHE …, priority 2018, published 2021)

What was measured:
CTFα = assay: APP carboxy-terminal fragment αCTF by Western blot in SY5Y-APP695WT cells; format: cell-based, human; conditions: CTFα increase compared to chloroquine ([CTF]compound/[CTF]CQ) at 3 μM; mean of at least three experiments
Excerpt: (§1) Antibodies. Primary antibodies used in this study for western-blot analysis included a homemade rabbit antiserum against the last 17 amino acids of human APP protein sequence, named APP-Cter-C17 (1/5000 in TBS-M). Anti-β-actin (1/10 000 in TBS-M) was obtained from Sigma. Anti-LC3B (1/2000 in TBS-BSA) and anti-p62/SQSTM1 (1/2000 in TBS-M) antibodies were purchased from Cell Signaling Technology. Secondary antibodies (peroxidase-labeled goat anti-rabbit IgG, 1/5000 or peroxidase-labeled horse anti-mouse IgG, 1/50000 in TBS-T) were obtained from Vector Laboratories.
(§2) Cell culture and treatment. The human neuroblastoma cell line SY5Y-APP^695WT was maintained in Dulbecco's modified Eagle medium (DMEM, high glucose, pyruvate—GIBCO by Life Technologies) supplemented with 10% foetal bovine serum, 2 mM L-glutamine, 1 mM non-essential amino acids and penicillin/streptomycin (GIBCO by Life Technologies) at 37° C. in a 5% CO2 humidified incubator. SY5Y-APP^695WT cells were maintained in 75 cm^2 culture flasks (Falcon) with supplemented DMEM medium until they reached 80% of confluence 24 h before treatment.
(§3) For drug treatment, cells were plated at a rate of 5·10^5 cells per well into 12-well plates (Falcon) and cultured with 1 mL supplemented DMEM cell medium for 24 h before drug exposure. The following day, cell medium was replaced with fresh medium containing drugs diluted at the indicated concentrations. Cells were treated for 24 h. At the end of treatments, the cell medium was collected and kept at −80° C. until use for dosage. Then, cells were rinsed once with PBS and extracted in 100 μL of Laemmli buffer (10 mM Tris, 20% glycerol and 2% Sodium dodecyl sulfate) using a cell-scraper. The cell lysate was further sonicated (30 pulses of 0.5 s, 60 Hz) for 5 min. Total protein concentration was determined using the Pierce BCA Protein Assay Kit (Thermo scientific) according to the manufacturer's instructions. Samples were stored at −80° C. until analysis.
(§4) Western Blot Analysis. Cell protein lysates were prepared for western-blot analysis by diluting the sample with 1 volume of NuPAGE® lithium dodecyl sulfate (LDS) 2× sample buffer supplemented with 20% NuPAGE® sample reducing agents (Invitrogen). Samples were heat 10 min at 100° C. 10 μg of total proteins per well were loaded onto a precast 4-12% Criterion XT Bis-Tris polyacrylamide gel (Bio-Rad) and electrophoresis was achieved after applying a tension of 150 V during 90 min using a Criterion electrophoresis Cell with the NuPAGE® MOPS SDS running buffer (1×). Proteins were transferred to a nitrocellulose membrane of […] pore size (G&E Healthcare) using the Criterion blotting system and applying a tension of 100 V for 45 min. To resolve proteins of low molecular weights such as carboxy-terminal fragments of APP, 12% Criterion XT Bis-Tris polyacrylamide gels (Bio-Rad) were used and electrophoresis was performed during 70 min at 150 V in a NuPAGE® MES SDS running buffer (1×). Proteins were transferred to a nitrocellulose membrane of 0.2 μm pore size (G&E Healthcare) at 100 V for 40 min. Molecular weights calibration was achieved using molecular weight markers (Novex and Magic Marks, Life Technologies). Protein transfer and quality were determined by a reversible Ponceau Red coloration (0.2% Xylidine Ponceau Red and 3% Trichloroacetic acid). Membranes were then blocked in 25 mM Tris-HCl pH 8.0, 150 mM NaCl, 0.1% Tween-20 (v/v) (TBS-T) and 5% (w/v) of skimmed milk (TBS-M) or 5% (w/v) of bovine serum albumin (TBS-BSA) depending on the antibody during 1 h. Membrane was rinsed three-times 10 min in TBS-T before incubation with the primary antibody overnight at 4° C. Membrane was rinsed 3 times 10 min with TBS-T and then incubated with the secondary antibody for 45 min at room temperature (RT). […] Quantifications of protein expression levels were performed with ImageJ Software (NIH). […]

Aβ1-40 peptide secretion = assay: Quantification of secreted Aβ1-40 by ELISA in SY5Y-APP695WT cells; format: cell-based; conditions: Homo sapiens; concentration inhibiting 50% of Aβ1-40 peptide secretion in SY5Y cells; 24 h treatment; mean ± SD of at least two experiments in triplicate
Description: (§5) Cell culture and treatment. The human neuroblastoma cell line […] was maintained in Dulbecco's modified Eagle medium (DMEM, high glucose, pyruvate-GIBCO by Life Technologies) supplemented with 10% foetal bovine serum, 2 mM L-glutamine, 1 mM non-essential amino acids and penicillin/streptomycin (GIBCO by Life Technologies) at 37° C. in a 5% CO2 humidified incubator. […] cells were maintained in 75 cm^2 culture flasks (Falcon) with supplemented DMEM medium until they reached 80% of confluence 24 h before treatment. For compounds treatment, a 10 mM stock solution was diluted in freshly supplemented DMEM medium to obtain the precise final concentration of drug. Bafilomycin A1 (BafA1), the vacuolar […] type H+ ATPase inhibitor, was purchased from Merck Millipore and was used at a final dilution of 100 nM. For drug treatment, cells were plated at a rate of 5·10^5 cells per well into 12-well plates (Falcon) and cultured with 1 mL supplemented DMEM cell medium for 24 h before drug exposure. The following day, cell medium was replaced with fresh medium containing drugs diluted at the indicated concentrations. Cells were treated for 24 h. At the end of treatments, the cell medium was collected and kept at -80° C. until use for dosage. Then, cells were rinsed once with PBS and extracted in 100 μL of Laemmli buffer (10 mM Tris, 20% glycerol and 2% Sodium dodecyl sulfate) using a cell-scraper. The cell lysate was further sonicated (30 pulses of 0.5 s, 60 Hz) for 5 min. Total protein concentration was determined using the Pierce BCA Protein Assay Kit (Thermo scientific) according to the manufacturer's instructions. Samples were stored at -80° C. until analysis. Quantification of secreted Aβ1-40/1-42 and sAPPα/sAPPβ. Conditioned media of […] collected at the end of treatments were centrifuged at 1000 g for 5 min to eliminate cells debris. Aβ1-40 and Aβ1-42 peptide concentrations in […] were determined using amyloid-beta 40 and 42 Human ELISA kits (Invitrogen) according to the manufacturer's instructions after 1:10 and 1:2 dilutions of supernatants in ELISA buffer, respectively. sAPPα and sAPPβ concentrations in ng/mL were determined using the sAPPα/sAPPβ kit (Meso Scale Diagnostics, MSD®) according to the manufacturer's instructions. Compounds of the invention (compounds 24-37, 41, 44 and 51-58) were evaluated for their ability to modulate APP processing on SY5Y human neuroblastoma cell line stably expressing the neuronal isoform of human wild-type APP695 (SYSY-APPwt). Aβ levels (Aβ1-40 and Aβ1-42) after treatment with reference and tested compounds were measured by ELISA (Table 2). […] APP carboxy-terminal fragments (αCTFs and AICD) were measured by Western blot and quantified. The effect of reference and tested compounds on αCTFs and AICD are expressed as the intensity of corresponding western-blot bands resulting from the secretase cleavages.

AICD = AICD by Western blot in SY5Y-APP695WT cells; format: cell-based, human; conditions: AICD increase compared to chloroquine ([AICD]compound/[AICD]CQ) at 3 μM; mean of at least three experiments
Excerpt: as §1, §2, §3, §4

Aβ1-42 peptide secretion = assay: Quantification of secreted Aβ1-42 by ELISA in SY5Y-APP695WT cells; format: cell-based; conditions: Homo sapiens; concentration inhibiting 50% of Aβ1-42 peptide secretion in SY5Y cells; 24 h treatment; mean ± SD of at least two experiments in triplicate
Description: as §5

Compound	CTFα vs CQ (3 μM) (CTFα)	IC50 (Aβ1-40 peptide secretion) [µM]	AICD vs CQ (3 μM) (AICD)	IC50 (Aβ1-42 peptide secretion) [µM]
CN(C)Cc1ccccc1-c1cccc(OCCN2CCCCC2)c1 [Compound 41, N,N-Dimethyl-1-(3′-(2-(piperidin-1-yl)ethoxy)-[1,1′-biphenyl]-2-yl)methanamine]	0.6	1.5 ± 0.3	0.7	1.2 ± 0.3
CN(C)Cc1ccccc1-c1ccc(NCCCN2CCCCC2)cc1 [Compound 44, 2′-((Dimethylamino)methyl)-N-(3-(piperidin-1-yl)propyl)-[1,1′-biphenyl]-4-amine]	0.9	3.9 ± 1	0.8	3.6 ± 0.1
CN(C)Cc1ccn(-c2ccc(NCCCN3CCCCC3)c(OCCN3CCCCC3)c2)c1 [Compound 51, 4-(3-[(Dimethylamino)methyl]-1H-pyrrol-1-yl)-2-[2-(piperidin-1-yl)ethoxy]-N-[3-(piperidin-1-yl)propyl]aniline]	3.6	5 ± 0.9	2.0	6.5 ± 2
c1cn(-c2ccc(NCCCN3CCCCC3)c(OCCN3CCCCC3)c2)cc1CN1CCCCC1 [Compound 52, 2-[2-(Piperidin-1-yl)ethoxy]-N-[3-(piperidin-1-yl)propyl]-4-[3-(piperidin-1-ylmethyl)-1H-pyrrol-1-yl]aniline]	3.3	3.7 ± 1.3	1.2	5 ± 0.3
c1cn(-c2ccc(NCCCN3CCCCC3)c(OCCN3CCCCC3)c2)cc1CN1CCOCC1 [Compound 53, 4-[3-(Morpholin-4-ylmethyl)-1H-pyrrol-1-yl]-2-[2-(piperidin-1-yl)ethoxy]-N-[3-(piperidin-1-yl)propyl]aniline]	1.7	3.3 ± 0.2	3.3	3.5 ± 1.1
CN(C)CCCNc1ccc(-n2ccc(CN(C)C)c2)cc1OCCN1CCCCC1 [Compound 55, 4-(3-[(dimethylamino)methyl]-1H-pyrrol-1-yl)-N-[3-(dimethylamino)propyl]-2-[2-(piperidin-1-yl)ethoxy]aniline]	1.2	6.1 ± 0.7	0.8	8 ± 1.6
CN(C)CCCNc1ccc(-n2ccc(CN3CCCCC3)c2)cc1OCCN1CCCCC1 [Compound 56, N-[3-(Dimethylamino)propyl]-2-[2-(piperidin-1-yl)ethoxy]-4-[3-(piperidin-1-ylmethyl)-1H-pyrrol-1-yl]aniline]	2.5	5.3 ± 0.1	2.7	6.3 ± 0.7
CN(C)CCCNc1ccc(-n2ccc(CN3CCOCC3)c2)cc1OCCN1CCCCC1 [Compound 57, N-[3-(Dimethylamino)propyl]-4-[3-(morpholine-4-ylmethyl)-1H-pyrrol-1-yl]-2-[2-(piperidin-1-yl)ethoxy]aniline]	2.2	2.8 ± 1.1	2.6	3.4 ± 2
CN(C)CCCNc1ccc(-n2ccc(CN3CCN(C)CC3)c2)cc1OCCN1CCCCC1 [Compound 58, N-[3-(dimethylamino)propyl]-4-(3-[(4-methylpiperazin-1-yl)methyl]-1H-pyrrol-1-yl}-2-[2-(piperidin-1-yl)ethoxy]aniline]	3.0	5.1 ± 1.3	1.8	5.4 ± 0.4
